Source: ChEMBL document CHEMBL3885861, “Open TG-GATES”

Species on record: Rattus norvegicus
Assay: Open TG-GATES - Regimen: Single
Format: toxicity, organism-based, Sprague-Dawley
Set-up: regimen Single, gender Male, age 6 weeks
Settings: in vivo, po, 6 mg/kg, route gavage, dose level Low; for APTT / Bas / Eos / Fbg / Hb / Ht / Lym / MCH / MCHC / MCV / Mono / Neu / PT / Plat / RBC / Ret / WBC: tissue Blood; for KIDNEY_L / KIDNEY_R / KIDNEY_TOTAL: tissue Kidney; for LIVER: tissue Liver; for A/G / ALP / ALT / AST / BUN / CRE / Ca / Cl / DBIL / GLC / IP / K / LDH / Na / PL / RALB / TBIL / TC / TG / TP / gamma-GTP: tissue Plasma

## CC(C)NNC(=O)c1ccncc1 [IPRONIAZID]
3 h
  TERMINAL_BW: 204.8 g
  APTT: 22.1 s
  Bas: 0%
  Eos: 1%
  Fbg: 317 mg/dL
  Hb: 13.4 g/dL
  Ht: 38.8%
  Lym: 77%
  MCH: 21.1 pg
  MCHC: 34.5%
  MCV: 61.2 fL
  Mono: 1.8%
  Neu: 20%
  PT: 16.3 s
  Plat: 129.7 x10_4/uL
  RBC: 634.8 x10_4/ul
  Ret: 7.5%
  WBC: 72.5 x10_2/uL
  KIDNEY_L: 1 g
  KIDNEY_R: 1 g
  KIDNEY_TOTAL: 2 g
  LIVER: 9.7 g
  A/G: 1.2
  ALP: 1455.8 IU/L
  ALT: 40.8 IU/L
  AST: 83.8 IU/L
  BUN: 13.4 mg/dL
  CRE: 0.1 mg/dL
  Ca: 10.6 mg/dL
  Cl: 106.8 meq/L
  DBIL: 0.002 mg/dL
  GLC: 187.2 mg/dL
  IP: 9 mg/dL
  K: 4.1 meq/L
  LDH: 208.2 IU/L
  Na: 142 meq/L
  PL: 132.4 mg/dL
  RALB: 3.1 g/dL
  TBIL: 0.016 mg/dL
  TC: 67 mg/dL
  TG: 73.2 mg/dL
  TP: 5.6 g/dL
  gamma-GTP: 1.4 IU/L
6 h
  TERMINAL_BW: 201.3 g
  APTT: 22.8 s
  Bas: 0%
  Eos: 0.6%
  Fbg: 317 mg/dL
  Hb: 13.1 g/dL
  Ht: 38.4%
  Lym: 78.8%
  MCH: 20.9 pg
  MCHC: 34.1%
  MCV: 61.2 fL
  Mono: 2.2%
  Neu: 17.8%
  PT: 15.6 s
  Plat: 118.4 x10_4/uL
  RBC: 627.2 x10_4/ul
  Ret: 7.4%
  WBC: 69.8 x10_2/uL
  KIDNEY_L: 0.9 g
  KIDNEY_R: 0.9 g
  KIDNEY_TOTAL: 1.9 g
  LIVER: 8.9 g
  A/G: 1.2
  ALP: 1305.2 IU/L
  ALT: 36.8 IU/L
  AST: 73.2 IU/L
  BUN: 9.6 mg/dL
  CRE: 0.2 mg/dL
  Ca: 10.6 mg/dL
  Cl: 106.8 meq/L
  DBIL: 0.002 mg/dL
  GLC: 182.4 mg/dL
  IP: 9.2 mg/dL
  K: 4.3 meq/L
  LDH: 225.2 IU/L
  Na: 141.6 meq/L
  PL: 135.2 mg/dL
  RALB: 3.1 g/dL
  TBIL: 0.014 mg/dL
  TC: 74.2 mg/dL
  TG: 62.2 mg/dL
  TP: 5.5 g/dL
  gamma-GTP: 1 IU/L
9 h
  TERMINAL_BW: 205.8 g
  APTT: 22 s
  Bas: 0%
  Eos: 1%
  Fbg: 323.2 mg/dL
  Hb: 13.2 g/dL
  Ht: 38.7%
  Lym: 77.8%
  MCH: 20.8 pg
  MCHC: 34.1%
  MCV: 60.9 fL
  Mono: 2%
  Neu: 18.6%
  PT: 15.8 s
  Plat: 120.2 x10_4/uL
  RBC: 635.6 x10_4/ul
  Ret: 7.8%
  WBC: 99.2 x10_2/uL
  KIDNEY_L: 0.9 g
  KIDNEY_R: 1 g
  KIDNEY_TOTAL: 1.9 g
  LIVER: 8.7 g
  A/G: 1.2
  ALP: 1353 IU/L
  ALT: 37.2 IU/L
  AST: 72 IU/L
  BUN: 12.8 mg/dL
  CRE: 0.2 mg/dL
  Ca: 10.4 mg/dL
  Cl: 106.8 meq/L
  DBIL: 0.004 mg/dL
  GLC: 178.8 mg/dL
  IP: 10 mg/dL
  K: 4.2 meq/L
  LDH: 172.6 IU/L
  Na: 141.4 meq/L
  PL: 130.6 mg/dL
  RALB: 3 g/dL
  TBIL: 0.014 mg/dL
  TC: 74 mg/dL
  TG: 72.2 mg/dL
  TP: 5.5 g/dL
  gamma-GTP: 1.4 IU/L
24 h
  TERMINAL_BW: 218.2 g
  APTT: 21.7 s
  Bas: 0%
  Eos: 1%
  Fbg: 323.4 mg/dL
  Hb: 13.2 g/dL
  Ht: 38.3%
  Lym: 83.8%
  MCH: 21.2 pg
  MCHC: 34.5%
  MCV: 61.3 fL
  Mono: 2.6%
  Neu: 12.2%
  PT: 16.6 s
  Plat: 119.6 x10_4/uL
  RBC: 624 x10_4/ul
  Ret: 7.1%
  WBC: 95 x10_2/uL
  KIDNEY_L: 1 g
  KIDNEY_R: 1 g
  KIDNEY_TOTAL: 1.9 g
  LIVER: 10.2 g
  A/G: 1.2
  ALP: 1506.4 IU/L
  ALT: 43.2 IU/L
  AST: 74.6 IU/L
  BUN: 15.2 mg/dL
  CRE: 0.2 mg/dL
  Ca: 10.7 mg/dL
  Cl: 106.4 meq/L
  DBIL: 0.004 mg/dL
  GLC: 179.8 mg/dL
  IP: 7.4 mg/dL
  K: 4.6 meq/L
  LDH: 255 IU/L
  Na: 141.6 meq/L
  PL: 148.8 mg/dL
  RALB: 3 g/dL
  TBIL: 0.008 mg/dL
  TC: 83.2 mg/dL
  TG: 98.8 mg/dL
  TP: 5.5 g/dL
  gamma-GTP: 1.6 IU/L
